Data set [1] relates to cornea of the right eye of a Wistar rat. How it is done: Rat models of corneal angiogenesis were produced as follows. Aqueous benzene compositions having the desired concentration (between 3.0 M and 7.0 M) were prepared by mixing benzene and water. The aqueous composition was then sterilized by heating to 100° C. for 15 minutes. In particular, 3.0 M, 4.0 M, 5.0 M, 6.0 M, or 7.0 M aqueous benzene compositions were prepared. Then, 10 μL of each composition was topically applied to the center of the cornea of the right eye of a Wistar rat that was two to three months old. The benzene aqueous composition was allowed to absorb into the eye, and was applied only once. Because the eye has its own natural protective mechanisms, it was not necessary to wash the eye at the end of the application.

Data set [2] concerns cornea of one eye of a Wistar rat. The protocol:
A rat model of corneal keratoconus was produced as follows. An aqueous benzene composition having a concentration of 7.0 M to 8.5 M was prepared by mixing water and benzene. The composition was then sterilized by heating the solution to 100° C. for 15 minutes. The aqueous benzene composition (10 μL) was topically applied directly to the center of the cornea of one eye of a Wistar rat by micropipetting. The rat was three months old, and benzene was applied only once.

Data set [3] concerns cornea. To be noted: compared to the amount observed when benzene is used.
Data set [4] concerns cornea of the right eye of a Wistar rat. To be noted: for Observation in Treated Eye (Number of Rats) Angiogenesis / Observation in Treated Eye (Number of Rats) Corneal Keratoconus / Observation in Treated Eye (Number of Rats) No Change: 10 μL applied once, 5 rats treated. How it is done:
Rat models of corneal angiogenesis and corneal keratoconus were produced as follows. Aqueous solutions of phenol having a concentration of 0.1 M, 0.5 M, 1.0 M, 3.0 M, 5.6 M, or 8.5 M were prepared by mixing phenol and water. The solutions were then sterilized by heating to 100° C. for 15 minutes. Then, 10 μL of the sterile phenol solution was topically applied to the center of the cornea of the right eye of a Wistar rat that was two months old. Five rats were treated for each concentration of phenol tested. The phenol solution was allowed to absorb into the eye, and was applied only once. Because the eye has its own natural protective mechanisms, it was not necessary to wash the eye at the end of the application.
Histological studies were performed after eight weeks following the application of phenol. The cornea was excised, and a piece of the corneal epithelium was stained with hematoxylin and eosin stain.

The mark [5] stands for this setting: 7.0 M to 8.5 M aqueous benzene composition, 10 μL.

Read-outs that look alike come from different tables or passages of the source.

For `c1ccccc1` [benzene], in data set [1] (all concentrations of benzene (3.0 M to 7.0 M, 10 μL), as early as 15 days after application), the “new blood vessel formation in the cornea” value was “new blood vessels began to form in the cornea”. In addition, the “persistence of observed growth of new blood vessels from the initial application” value in data set [1] (single application of benzene) is given as “at least four”. For the same molecule, the “amount of new blood vessels observed in the cornea, compared with 15 days” value in data set [1] (three weeks after application) is “even greater”. Also, in data set [1] (within 15 days of application, 3.0 M to 7.0 M), the “amount of new blood vessels observed when higher concentrations were applied” value was “increased”. Also, in data set [2] (setting [5]), the “time at which changes in the cornea began to occur following application” value is recorded as “within the first week” and the “time of protrusion of the cornea following application” value is recorded as “within the second week”. Besides, the “corneal tissue changes in addition to angiogenesis” value in data set [2] (7.0 M to 8.5 M aqueous benzene composition, 10 μL, applied once (FIG. 3)) is “marked thinning, and outward protrusion”. The “severity of corneal keratoconus / endophthalmitis (intraocular infection)” value in data set [2] (10 μL of a 9.0 M aqueous benzene composition) was “so severe that the rats developed endophthalmitis”.
As to `Oc1ccccc1` [phenol], the “fibrosis and scar tissue formation, phenol compared with benzene” value in data set [3] was “less fibrosis and scar tissue formation”. The “other anatomical or inflammatory alterations besides new corneal vessels” value in data set [4] (3 M phenol solution, 10 μL, three weeks (FIG. 1B)) is given as “no other anatomical or inflammatory alterations were observed”. For the same molecule, the “Observation in Treated Eye (Number of Rats) Angiogenesis” value is 1 Number of Rats in data set [4] (Phenol Concentration 0.1M); 1 Number of Rats in data set [4] (Phenol Concentration 0.5M); 3 Number of Rats in data set [4] (Phenol Concentration 1.0M); 4 Number of Rats in data set [4] (Phenol Concentration 3.0M); 4 Number of Rats in data set [4] (Phenol Concentration 6.5M); 3 Number of Rats in data set [4] (Phenol Concentration 8.5M). Also, the “Observation in Treated Eye (Number of Rats) Corneal Keratoconus” value in data set [4] (Phenol Concentration 0.1M) is reported as 0 Number of Rats; in data set [4] (Phenol Concentration 0.5M) it was 0 Number of Rats; in data set [4] (Phenol Concentration 1.0M), 0 Number of Rats; in data set [4] (Phenol Concentration 3.0M), 2 Number of Rats; in data set [4] (Phenol Concentration 6.5M), 2 Number of Rats; in data set [4] (Phenol Concentration 8.5M), 1 Number of Rats. Further, the “Observation in Treated Eye (Number of Rats) No Change” value in data set [4] (Phenol Concentration 0.1M) is 4 Number of Rats; in data set [4] (Phenol Concentration 0.5M), 4 Number of Rats; in data set [4] (Phenol Concentration 1.0M), 7 Number of Rats; in data set [4] (Phenol Concentration 3.0M), 1 Number of Rats; in data set [4] (Phenol Concentration 6.5M) it was 1 Number of Rats; in data set [4] (Phenol Concentration 8.5M), 2 Number of Rats. Moreover, the “period over which blood vessel growth was observed” value in data set [4] (after single application of aqueous phenol solution) was “four”. Besides, the “new blood vessel formation in the cornea” value in data set [4] (all concentrations tested (0.1 M to 8.5 M), at least one of the rats in each group, one week after application) is given as “new blood vessels began to form in the cornea”. Moreover, the “histology of corneal epithelium, hematoxylin and eosin stain” value in data set [4] (eight weeks after single application of 3.0 M phenol solution (10 μl), FIG. 1C) is “well differentiated blood vessels can be seen under the basal membrane of the corneal epithelium”. The “changes associated with corneal ectasia, particularly corneal keratoconus” value in data set [4] (higher concentrations of phenol tested (3.0 M, 5.6 M, and 8.5 M)) was “observed in some of the rats”. The “amount of new blood vessels observed in the cornea, compared with one week” value in data set [4] (three weeks after application (FIG. 1B, 3 M solution)) is on record as “even greater”.

The record behind these values is patent US11895992B2, “Animal models of corneal ectatic diseases, methods of producing, and methods of use thereof” (priority 2014, dated 2024).
